Assay results taken from ChEMBL document CHEMBL3875164, “Pyrazole-based potent inhibitors of GGT1: Synthesis, biological evaluation, and molecular docking studies” (Eur J Med Chem, 2016).

Assays:
[1] = Cytotoxicity against human MDA-MB-231 cells assessed as cell growth inhibition after 48 hrs by MTT assay method; format: functional, cell-based; details: MDA-MB-231, 48 h
[2] = Inhibition of recombinant FT (unknown origin) using FPP as substrate preincubated for 5 mins followed by protein addition measured over 20 mins by fluorescence assay; set-up: species or system Homo sapiens

Compound | IC50 [1] [µM] | IC50 [2] [µM]
CSCCc1c(-c2cccnc2)nn(-c2ccc(Cl)c(Cl)c2)c1OCCCC(=O)N[C@@H](Cc1ccccc1)C(N)=O | 23 | –
COC(=O)[C@H](CCSC)NC(=O)c1ccc(NC[C@@H](N)CS)cc1-c1ccccc1 | – | 1.1
CSCCc1c(-c2cccnc2)nn(-c2ccc(Cl)c(Cl)c2)c1OCCCNC(=O)[C@H](Cc1ccccc1)NS(C)(=O)=O | > 50 | > 100
CSCCc1c(-c2cccnc2)nn(-c2ccc(Cl)c(Cl)c2)c1OCCCNC(=O)[C@H](Cc1ccc(F)cc1)NS(C)(=O)=O | > 50 | > 100
COc1ccc(C[C@H](NS(C)(=O)=O)C(=O)NCCCOc2c(CCSC)c(-c3cccnc3)nn2-c2ccc(Cl)c(Cl)c2)cc1 | > 50 | > 100
CSCCc1c(-c2cccnc2)nn(-c2ccc(Cl)c(Cl)c2)c1OCCCNC(=O)[C@H](Cc1cccnc1)NC(C)=O | 52.3 | > 100
CSCCc1c(-c2cccnc2)nn(-c2ccc(Cl)c(Cl)c2)c1OCCCNC(=O)[C@H](Cc1ccncc1)NC(C)=O | 34.9 | > 100
CSCCc1c(-c2cccnc2)nn(-c2ccc(Cl)c(Cl)c2)c1OCCCNC(=O)[C@H](Cc1cccnc1)NS(C)(=O)=O | > 50 | > 100
COc1ccc(C[C@H](NC(=O)OC(C)(C)C)C(=O)NCCCOc2c(CCSC)c(-c3cccnc3)nn2-c2ccc(Cl)c(Cl)c2)cc1 | > 50 | > 100
CSCCc1c(-c2cccnc2)nn(-c2ccc(Cl)c(Cl)c2)c1OCCCNC(=O)[C@H](Cc1ccccc1)NC(C)=O | 15.4 | > 100
CSCCc1c(-c2cccnc2)nn(-c2ccc(Cl)c(Cl)c2)c1OCCCNC(=O)[C@H](Cc1ccncc1)NS(C)(=O)=O | 26.5 | > 100
CSCCc1c(-c2cccnc2)nn(-c2ccc(Cl)c(Cl)c2)c1OCCCNC(=O)[C@H](Cc1ccc(F)cc1)NC(C)=O | 13.2 | > 100
COc1ccc(C[C@H](NC(=O)CCCOc2c(CCSC)c(-c3cccnc3)nn2-c2ccc(Cl)c(Cl)c2)C(N)=O)cc1 | 33.2 | > 100
CSCCc1c(-c2cccnc2)nn(-c2ccc(Cl)c(Cl)c2)c1OCCCC(=O)N[C@@H](Cc1ccc(F)cc1)C(N)=O | 7.6 | > 100
CSCCc1c(-c2cccnc2)nn(-c2ccc(Cl)c(Cl)c2)c1OCCCC(=O)N[C@@H](Cc1cccnc1)C(N)=O | 29.4 | > 100
COc1ccc(C[C@H](NC(C)=O)C(=O)NCCCOc2c(CCSC)c(-c3cccnc3)nn2-c2ccc(Cl)c(Cl)c2)cc1 | 14.8 | > 100
CSCCc1c(-c2cccnc2)nn(-c2ccc(Cl)c(Cl)c2)c1OCCCC(=O)N[C@@H](Cc1ccncc1)C(N)=O | > 50 | > 100
